Source: a melting point compilation (Tetko et al.)

| SMILES | melting point [°C] |
| --- | --- |
| Nc1c(C(=O)O)ccc2cccnc12 | 207 to 209 |
| COC(=O)c1cc(Oc2ccc(Cl)cc2)ccc1N | 74 to 76 |
| Cc1[nH]c(=O)[nH]c(=O)c1CO | 326 to 328 |
| CC(=NO)c1ccc(OCc2ccc(F)cc2)cc1 | 151 to 153 |
| O=C(NCO)c1ccc(Cl)cc1 | 145 to 147 |
| O=S(=O)(Cl)CCNS(=O)(=O)c1ccccc1 | 96 to 98 |
| Nc1c(-c2ccccc2)nn(-c2ccccc2)c1N | 89 to 91 |
| Cc1ccc(-n2nnnc2S)c(C)c1 | 110 to 112 |
| CCc1nnc2ccc(Cl)nn12 | 100 to 102 |
| Cc1ccc(S(=O)(=O)N2CCC(C(=O)O)CC2)c(C)c1 | 200 to 202 |
| Cc1nc(S(=O)(=O)Oc2c(F)c(F)c(F)c(F)c2F)sc1C | 98 to 100 |
| Sc1nc2cc(Cl)ccc2o1 | 277 to 279 |
| O=C(O)C1=NN(Cc2ccc(F)cc2)C(=O)CC1 | 190 to 192 |
| Cc1cc(N2CCCC2=O)ccc1S(=O)(=O)Cl | 104 to 106 |
| O=Cc1cnc(N2CCOCC2)nc1 | 147 to 149 |
| O=C(O)c1ccn(Cc2ccccc2)c1 | 150 to 152 |
| O=C(CCl)NCC1(c2ccccc2)CCCCC1 | 54 to 56 |
| COc1nc(C)cc(Cl)n1 | 59 to 61 |
| O=C(c1ccccc1)c1ncccn1 | 79 to 81 |
| N#Cc1c(Cl)nsc1Cl | 64 to 66 |
| OCc1ncc(-c2cccc(Cl)c2)o1 | 101 to 103 |
| O=Cc1ccc(OCC(=O)O)c(Br)c1 | 196 to 198 |
| NC(=O)COc1cccc(C(=O)O)c1 | 223 to 225 |
| O=C(O)c1ccc(F)c(S(=O)(=O)N2CCC2)c1 | 180 to 182 |
| Nc1ccccc1NC(=O)N1CCCC1 | 127 to 129 |

| SMILES | melting point [°C] |
| --- | --- |
| Cc1noc(C)c1S(=O)(=O)NC(C)C(=O)O (stereo unspecified) | 135 to 137 |
| COC(=O)c1c[nH]c(=O)c([N+](=O)[O-])c1 | 214 to 216 |
| O=C1C(Br)CCCN1c1ccccc1Cl (stereo unspecified) | 108 to 110 |
| O=C(O)c1ccccc1OCc1ccc(Cl)cc1 | 85 to 87 |
| O=C(COc1ccc2c(c1)CCC2)c1ccc(Cl)c(Cl)c1 | 89 to 91 |
| O=Cc1ccc(Br)cc1[N+](=O)[O-] | 95 to 100 |
| O=C(O)C=Cc1cncc2ccccc12 | 260 to 262 |
| COC(=O)c1cc(Cl)ccn1 | 55 to 57 |
| O=C(Nc1ccc(-n2cccn2)c(F)c1)OCC(F)(F)F | 156 to 158 |
| CC(C(=O)O)c1ccc2ccccc2c1 (stereo unspecified) | 120 to 122 |
| O=Cc1cn(-c2ccccc2)nc1-c1ccccc1 | 144 to 148 |
| O=C(O)c1ccnc(-n2cncn2)c1 | 314 to 316 |
| COc1ccccc1C(C)N(C)C(=O)CCl (stereo unspecified) | 66 to 68 |
| O=C1CCCC(=O)N1c1ncc(Br)s1 | 139 to 141 |
| CC(Cl)C(=O)NC(N)=O (stereo unspecified) | 159 to 161 |
| Cc1ccc(Cl)c2c1C(=O)C(=O)N2 | 209 to 211 |
| OCc1cc(Br)c2c(c1)OCO2 | 134 to 136 |
| FC(F)(F)c1ccc(OCc2ccc(Cl)nc2)cc1 | 106 to 108 |
| O=C(O)Cn1nnc2ccccc2c1=O | 145 to 150 |
| O=C1CC(CO)CN1CCc1ccccc1 (stereo unspecified) | 65 to 67 |
| O=Cc1ccc(-c2cccc(Br)c2)o1 | 99 to 101 |
| Cc1cc(NC(=O)CSCC(N)C(=O)O)no1 (stereo unspecified) | 204 to 206 |
| O=C(CCCl)N1CCN(c2ccc(F)cc2)CC1 | 99 to 101 |
| O=C(CCl)NC(=O)NC12CC3CC(CC(C3)C1)C2 | 169 to 171 |
| BrC1=CC2C(C3C=CC2(Br)C32OCCO2)C12OCCO2 (stereo unspecified) | 178 to 180 |

| SMILES | melting point [°C] |
| --- | --- |
| Cc1nc2ccccc2cc1C(=O)O | 243 to 245 |
| O=C(O)c1cccc(NS(=O)(=O)c2ccc(Cl)c(Cl)c2)c1 | 254 to 256 |
| O=Cc1cc(Cl)ccc1OCc1cccnc1 | 79 to 81 |
| CC(C)(C)NS(=O)(=O)c1cc(C(=O)O)ccc1Br | 217 to 219 |
| CCOC(=O)c1c(-c2ccc(OC)c(OC)c2)csc1N | 223 to 225 |
| O=C(O)C(c1ccccc1)N1CCS(=O)(=O)CC1 (stereo unspecified) | 165 to 167 |
| NNc1ccc(S(=O)(=O)N2CCC(Cc3ccccc3)CC2)cn1 | 185 to 187 |
| CC(=O)c1ccc(OC2CCCCC2)cc1 | 74 to 76 |
| COC(=O)C1=NOC(C(=O)O)C1 (stereo unspecified) | 83 to 85 |
| N#CC1(NC(=O)CCl)CCCC1 | 74 to 76 |
| COc1ccc2[nH]c3c(c2c1)CCC3 | 119 to 121 |
| Cc1ccc(Oc2ccc(N)cn2)cc1 | 90 to 92 |
| COC(=O)C1CCN(S(=O)(=O)Cl)CC1 | 66 to 68 |
| COc1cccc(NC(=O)c2ccccc2N(C)C(=O)CCC(=O)O)c1 | 125 to 127 |
| Cn1nnc2cc(CCl)ccc21 | 83 to 85 |
| O=C(O)CCCOc1ccc(I)cc1 | 126 to 128 |
| Fc1cc2nc(S)[nH]c2cc1F | 291 to 293 |
| COCCOc1ccc(C(C)=O)cc1OC | 85 to 87 |
| CN1CCN(c2cccc(Cl)c2C=O)CC1 | 80 to 82 |
| CN1CCN(c2ccc(N)nc2)CC1 | 119 to 121 |
| CC(=CC(=O)O)c1ccccc1C | 81 to 83 |
| Cc1ccc(S(=O)(=O)Nc2ccccc2Br)cc1 | 88 to 90 |
| O=C(CCl)Nc1ccncc1 | 295 to 297 |
| CC(C)C(Br)C(=O)N1CCc2ccccc2C1 (stereo unspecified) | 90 to 92 |
| Sc1nccn1Cc1ccccc1 | 146 to 148 |

Other lines, results leading:

| melting point [°C] | SMILES |
| --- | --- |
| 148 to 150 | Cc1ccc2cc(C=O)c(Cl)nc2c1 |
| 151 to 153 | CCOC(=O)c1sc(/N=C/N(C)C)c(C#N)c1C |
| 156 to 158 | O=C(NC1CCNCC1)C1CCOCC1 |
| 85 to 87 | CC(C)CNC(=O)NC(=O)C(C)Cl (stereo unspecified) |
| 74 to 76 | COc1ccc(C#N)cc1N |
| 119 to 121 | O=C(CCl)Nc1cc(-n2nnnc2C2CC2)ccc1F |
| 92 to 94 | CCNC(=O)c1ccc(CN)cc1 |
| 137 to 139 | COc1ccc(S(N)(=O)=O)cc1C |
| 167 to 169 | COc1ccc(C2(C(=O)O)CCOCC2)cc1 |
| 123 to 125 | Cc1cccnc1NC(=O)C1CCCNC1 (stereo unspecified) |
| 162 to 164 | S=c1[nH]nnn1-c1ccc(Br)cc1 |
| 168 to 170 | NS(=O)(=O)c1cccc(N2CC(C(=O)O)CC2=O)c1 (stereo unspecified) |
| 59 to 61 | COC(=O)c1cc([N+](=O)[O-])c(F)cc1Cl |
| 104 to 106 | CC(C)(C)OC(=O)NCC#Cc1ccc(OCc2ccccc2)cc1 |
| 64 to 66 | CNCC(=O)N1CCN(C(=O)OC(C)(C)C)CC1 |
| 31 to 33 | Clc1ccc(OCC2CO2)cc1 (stereo unspecified) |
| 249 to 251 | Cc1cc(N2CCCS2(=O)=O)ccc1C(=O)O |
| 152 to 154 | NNC(=O)CN1C(=O)COc2ccccc21 |
| 259 to 261 | Cc1cc(C(F)(F)F)c2c(C)c(C(=O)O)sc2n1 |
| 127 to 129 | Cc1cc(S(=O)(=O)Cl)cc([N+](=O)[O-])c1C |
| 67 to 69 | Nc1cc(CC2CCCC2)no1 |
| 216 to 220 | O=C1Cc2ccc(Br)cc2N1 |

| melting point [°C] | SMILES |
| --- | --- |
| 158 to 160 | CC(C)(C)OC(=O)Nc1ccc(C(=O)O)c(O)c1 |
| 163 to 165 | Nc1ccccc1-c1ccc(-c2ccccc2)cc1 |
| 105 to 107 | Nc1ccc(S(=O)(=O)N2CCCCCC2)cc1 |
| 119 to 121 | CC1CC(C)CN(c2nnc(S)n2Cc2ccco2)C1 (stereo unspecified) |
| 141 to 143 | COc1cc(C#N)cc(Cl)c1O |
| 190 to 192 | Cc1sc2nc(CCl)[nH]c(=O)c2c1C |
| 89 to 91 | CC(C#N)Oc1cc(F)ccc1N (stereo unspecified) |
| 125 to 127 | Cc1nc(C)c(-c2csc(N)n2)s1 |
| 100 to 102 | COc1ccc2c(-c3ccccc3)cc(Cl)nc2c1 |
| 128 to 130 | CCN(c1ccccc1)S(=O)(=O)c1ccc(Cl)c(C(=O)O)c1 |
| 169 to 171 | CC(=O)C(CN1C(=O)c2ccccc2C1=O)C(C)=O |
| 141 to 143 | CCCSc1ccc(C(=O)O)cc1 |
| 193 to 195 | Cc1c(N)cccc1NC(=O)c1ccccc1 |
| 167 to 169 | Cc1nnc(SCC(=O)O)n1Cc1ccccc1 |
| 242 to 244 | O=C(O)c1csc(-c2cc3ccccc3o2)n1 |
| 105 to 107 | O=C(Nc1ccccc1I)C(F)(F)F |
| 200 to 202 | O=C(CCl)c1ccc2c(c1)-c1cc(C(=O)CCl)ccc1C2 |
| 209 to 211 | CN1C(=O)CCc2cc(C(=O)O)ccc21 |
| 189 to 191 | NC(=S)C1(NC(=O)c2ccccc2)CCCC1 |
| 112 to 114 | Cc1ccccc1NC(=O)C(C)Cl (stereo unspecified) |
| 61 to 63 | CC(C)(C#N)NS(C)(=O)=O |
| 172 to 174 | O=C(O)c1cc(S(=O)(=O)N2CCC2)ccc1Cl |

| melting point [°C] | SMILES |
| --- | --- |
| 64 to 66 | COC(=O)c1ccc(N)c(OC(F)F)c1 |
| 133 to 137 | CCOc1ccc(N2CC(C(=O)O)CC2=O)cc1 (stereo unspecified) |
| 96 to 98 | O=CNc1ccc2c(c1)OCO2 |
| 168 to 170 | CC(C)(N)c1noc(C(N)=O)n1 |
| 91 to 93 | NNC(=O)C1CCC1 |
| 229 to 231 | Nc1cc(-c2cccc(Br)c2)ncn1 |
| 141 to 143 | COc1ccc(-c2noc(CCC(=O)O)n2)cc1 |
| 182 to 184 | O=C(O)Cc1csc(NC(=O)OCC(F)(F)F)n1 |
| 89 to 91 | CC1(O)CCC(N)CC1 (stereo unspecified) |
| 105 to 106 | CCOC(=O)c1sc(-c2ccc(Br)cc2)cc1N |
| 155 to 159 | CC(C)OC(=O)c1cccc(-c2nn[nH]n2)c1 |
| 151 to 153 | COc1ccc(O)c(C(N)=O)c1 |
| 112 to 114 | C=CS(=O)(=O)c1ccc([N+](=O)[O-])cc1 |
| 185 to 187 | CC12CCC(CC1=NNC(=O)CCl)C2(C)C (stereo unspecified) |
| 144 to 146 | CS(=O)(=O)c1cc(Cl)c(C(=O)O)c(Cl)c1 |
| 57 to 59 | CCOc1ccc(C(=O)CBr)cc1 |
| 319 to 321 | O=c1c2c([nH]c3ccc(Oc4ccccc4)cc13)CCCC2 |
| 109 to 111 | CCOC(=O)c1nc(NCCc2ccccc2)sc1C |
| 257 to 259 | Cc1sc2ncnc(N)c2c1C |
| 93 to 95 | CC1CC1C(N)=O (stereo unspecified) |
| 269 to 271 | O=C(O)c1ccnc(OCCOc2cc(C(=O)O)ccn2)c1 |
| 185 to 187 | NC(=O)c1ccc(C(F)(F)F)nc1 |
